Source: the NIST ThermoML archive (doi:10.1016/j.fluid.2016.12.017)

Assay: mean ionic activity coefficient (dimensionless); mn = molality of the nth substance listed, in mol/kg
Conditions: 101 kPa, Liquid, galvanic cell

CCn1cc[n+](C)c1.[Br-] [1-ethyl-3-methylimidazolium bromide] + O
mean ionic activity coefficient
Conditions	298.2 K	308.2 K
m1 = 0.01	0.888	0.895
m1 = 0.0199	0.846	0.859
m1 = 0.0397	0.791	0.813
m1 = 0.0592	0.753	0.781
m1 = 0.0785	0.723	0.757
m1 = 0.1001	0.696	0.735
m1 = 0.1995	0.611	0.665
m1 = 0.3996	0.523	0.585
m1 = 0.6004	0.474	0.534
m1 = 0.7996	0.441	0.497
m1 = 1.001	0.417	0.467
m1 = 1.2	0.398	0.442
m1 = 1.4	0.382	0.42
m1 = 1.6	0.367	0.4
m1 = 1.8	0.354	0.382
m1 = 2	0.341	0.366
m1 = 2.2	–	0.351
